Our source for the IC50 values is patent US20240270741A1 (Cogent Biosciences, Inc., priority 2023, published 2024).

The IC50 is the concentration that gives 50% inhibition. A higher IC50 goes with lower potency.

The first experiment deals with FGFR2 (Homo sapiens, UniProt P21802). In words: FGFR wild type enzyme assay (HTRF KinEASE-TK), FGFR2. The settings on record: Enz FGFR2 (nM).
FGFR2, sequence (P21802 399-821 limits assumed): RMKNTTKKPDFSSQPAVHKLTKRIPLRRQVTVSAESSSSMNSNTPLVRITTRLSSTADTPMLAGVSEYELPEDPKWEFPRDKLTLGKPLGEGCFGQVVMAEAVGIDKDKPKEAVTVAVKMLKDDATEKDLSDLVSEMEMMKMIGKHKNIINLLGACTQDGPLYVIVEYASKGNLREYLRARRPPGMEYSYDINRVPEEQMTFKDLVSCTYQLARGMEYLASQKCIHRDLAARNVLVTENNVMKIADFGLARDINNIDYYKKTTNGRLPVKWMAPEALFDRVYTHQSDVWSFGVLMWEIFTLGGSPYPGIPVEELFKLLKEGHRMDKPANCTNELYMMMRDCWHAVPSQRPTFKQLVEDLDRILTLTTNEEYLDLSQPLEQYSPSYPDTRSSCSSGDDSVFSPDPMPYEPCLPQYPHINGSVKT
The molecule `Cc1ccnc(Sc2cc(-c3cnn([C@H]4CCCNC4)c3)cn3ncc(C#N)c23)c1` [Example 59, 4-[(4-methyl-2-pyridyl)sulfanyl]-6-[1-[(3S)-3-piperidyl]pyrazol-4-yl]pyrazolo[1,5-a]pyridine-3-carbonitrile] came in with an IC50 of 11 nM. In other words, the double-digit nanomolar range.

Consider `Cc1c(-c2cc(Sc3cccn4cncc34)c3c(C#N)cnn3c2)cnn1C1CCN(C)CC1` [Example 120, 4-imidazo[1,5-a]pyridin-8-ylsulfany1-6-[5-methyl-1-(1-methyl-4-piperidyl)pyrazol-4-yl]pyrazolo[1,5-a]pyridine-3-carbonitrile], for which the IC50 amounted to 1 nM.

`Cc1nccc(Sc2cc(-c3cnn(C4CCNCC4)c3C)cn3ncc(C#N)c23)c1F` [Example 121] registered an IC50 of 99 nM.

For the molecule `Cc1c(-c2cc(Sc3ncccc3F)c3c(C#N)cnn3c2)cnn1[C@H]1CC[C@@H](N(C)C)CC1` [Example 113], the IC50 was determined as 1 nM.

The same experiment, now with this note: Enz FGFR2 (nM), FGFR2 wild type enzyme.
`CC(=O)N1C[C@H]2C[C@H](n3ncc(-c4cc(Sc5ncccc5F)c5c(C#N)cnn5c4)c3C)C[C@H]2C1` [Example 245, 6-(1-((3aR,5s,6aS)-2-acetyloctahydrocylcopenta [c]pyrrol-5-yl)-5-methyl-1H-pyrazol-4-yl)-4-((3-fluoropyridin-2-yl)thio)pyrazolo[1,5-a]pyridine-3-carbonitrile] had an IC50 of 2.5 nM.

As for `CC(=O)N1CCO[C@H](Cn2ncc(-c3cc(Sc4ccccc4C#N)c4c(C#N)cnn4c3)c2C)C1` [Example 279, (S)-6-(1-((4-acetylmorpholin-2-yl)methyl)-5-methyl-1H-pyrazol-4-yl)-4-((2-cyanophenyl)thio)pyrazolo [1,5-a]pyridine-3-carbonitrile], the IC50 amounted to 3 nM.

On to `Cc1c(-c2cc(Sc3ncccc3F)c3c(C#N)cnn3c2)cnn1[C@@H](C)CN(C)C` [Example 179, (S)-6-(1-(1-(dimethylamino)propan-2-yl)-5-methyl-1H-pyrazol-4-yl)-4-((3-fluoropyridin-2-yl)thio)pyrazolo[1,5-a]pyridine-3-carbonitrile], for which the IC50 is 3 nM.

Molecule `Cc1c(-c2cc(Sc3ccc(F)cc3C#N)c3c(C#N)cnn3c2)cnn1[C@H]1CC[C@](C)(O)CC1` [Example 323, 4-((2-cyano-4-fluorophenyl)thio)-6-(1-((1r,4r)-4-hydroxy-4-methylcyclohexyl)-5-methyl-1H-pyrazol-4-yl)pyrazolo[1,5-a]pyridine-3-carbonitrile] showed an IC50 of 1 nM.

The same experiment, now with this note: Enz FGFR2 (nM), FGFR2 wild type enzyme assay.
In turn, `Cc1c(-c2cc(Sc3ncc(Cl)cc3F)c3c(C#N)cnn3c2)cnn1C1CCN(C)CC1` [Example 376, 4-((5-chloro-3-fluoropyridin-2-yl)thio)-6-(5-methyl-1-(1-methylpiperidin-4-yl)-1H-pyrazol-4-yl)pyrazolo[1,5-a]pryidine-3-carbonitrile] yielded a half-inhibitory concentration (IC50) of 5.5 nM.

With `N#Cc1ccccc1Sc1cc(-c2cnn(CCCO)c2)cn2ncc(C#N)c12` [Example 583, 4-((2-cyanophenyl)thio)-6-(1-(3-hydroxypropyl)-1H-pyrazol-4-yl)pyrazolo[1,5-a]pyridine-3-carbonitrile], the IC50 was 1 nM. This IC50 lies about 5.5-fold lower than the previous one.

`N#Cc1cnn2cc(-c3ccc(N4CCC(O)CC4)nc3)cc(Sc3ncccc3F)c12` [Example 552, 4-((3-fluoropyridin-2-yl)thio)-6-(6-(4-hydroxypiperidin-1-yl)pyridin-3-yl)pyrazolo[1,5-a]pyridine-3-carbonitrile] displayed an IC50 of 1 nM.

As to `CC(=O)N1[C@@H]2CC[C@H]1C[C@H](n1cc(-c3cc(Sc4ccc(F)cc4C#N)c4c(C#N)cnn4c3)c(C)n1)C2` [Example 410, 6-(1-((1R,3s,5S)-8-acetyl-8-azabicyclo[3.2.1]octan-3-yl)-3-methyl-1H-pyrazol-4-yl)-4-((2-cyano-4-fluorophenyl)thio)pyrazolo [1,5-a]pyridine-3-carbonitrile], the IC50 worked out at 26 nM.

With `CC(C)(C)n1cc(-c2cc(Sc3ncccc3F)c3c(C#N)cnn3c2)cn1` [Example 489, 6-(1-(tert-butyl)-1H-pyrazol-4-yl)-4-((3-fluoropyridin-2-y)thio)pyrazolo[1,5-a]pyridine-3-carbonitrile], the midpoint of inhibition, the IC50, lay at 3 nM.
